Measured values reported in patent US20090318351A1, “METHOD OF TREATING ACUTE ST-ELEVATION MYOCARDIAL INFARCTION WITH A DELTA PKC ANTAGONIST” (priority 2008, published 2009).
“Also recorded” adds a separate entry of the source. Ends that are not written are not given here.

What was measured:
[1] = Effect of D-peptides on plasma stability of KAI-9706
Description: KAI-9706 was engineered with D-amino acids to determine their impact on peptide composition stability. Unmodified KAI-9706 was compared to a peptide composition with the same amino acid sequence, however the amino acids used were d-enantiomers instead of 1-amino acids. A retro-inverso version and a scrambled version of the peptide composition were also prepared.

[2] = Plasma stability of capped peptides (KAI-9706 modified at amino and carboxy termini); settings: rat
Description: Plasma stability of capped peptides was compared. KAI-9706 was modified step-wise at its amino and carboxy termini. Plasma stability as measured by the percent of peptide composition remaining after 15 minutes.

[3] = tested on: patients with acute anterior STEMI; assay: DELTA MI trial: intracoronary KAI-9803 during primary PCI for acute anterior STEMI
Description: Safety and biomarker end points were assessed.
The following example is a clinical treatment of acute ST-elevation myocardial infarction (STEMI) using the compositions and methods provided in the invention.
Patients were recommended to receive aspirin (162-325 mg orally), a thienopyridine loading dose (clopidogrel 300-600 mg or ticlopidine 500 mg), unfractionated heparin, and glycoprotein IIb-IIIa inhibitors during PCI. […] After verifying the final angiographic inclusion criteria during diagnostic angiography, randomization and study drug preparation occurred in the catheterization laboratory before the beginning of the PCI procedure.
Study drug was reconstituted into a clear solution at 1 of 4 concentrations using serial dilutions with 0.9% sodium chloride solution. Study drug was administered during PCI in the following sequence. First, the guidewire was passed across the obstruction in the left anterior descending (LAD) infarct vessel and an over-the-wire balloon catheter was positioned at the level of the obstruction. Second, the guidewire was removed, and dilute contrast was injected to confirm positioning of the catheter tip downstream from the obstruction and to assess patency of the distal vessel. The contrast injection was followed by a saline flush, and the guidewire was reinserted. Third, the balloon was inflated, and, after removing the guidewire, 2 mL of blinded study drug were hand injected slowly into the distal vascular bed over at least 1 minute. Fourth, the guidewire was readvanced through the catheter into the distal vessel, and the balloon was deflated. Finally, after antegrade epicardial coronary flow was re-established following initial balloon inflations, 3 mL of blinded study drug were injected through the guide catheter positioned at the ostium of the left main coronary artery. The PCI procedure was then completed according to standard technique.
After initial informed consent was obtained and before diagnostic angiography was performed, a continuous digital 12-lead ECG monitor (NEMON 180+, Northeast Monitoring, Natick, Mass.) was applied and baseline serum samples were obtained for analyses of cardiac markers including creatine kinase (CK and CK-MB), troponin T, and N-terminal pro-brain natriuretic peptide (BNP).
After completion of the PCI procedure, angiography was performed a minimum of 10 minutes after the final balloon inflation and a minimum of 30 minutes after antegrade epicardial flow was re-established to measure TIMI (Thrombolysis in Myocardial Infarction) flow grade, corrected TIMI frame count, and TIMI myocardial perfusion grade (TMPG). TMPG was assessed approximately 30 minutes after administration of study drug and prior to intracoronary administration of adenosine. Coronary flow reserve was determined by measuring corrected TIMI frame count before and after administration of 18-24 mcg of intracoronary adenosine. A left ventriculogram was performed to assess ejection fraction.
The continuous ECG monitor was removed after 24 hours of data collection. Continuous ST-segment recovery analysis was performed in a blinded core laboratory. End points assessed from measurement of continuous 12-lead ECGs included time to stable ST recovery, % ST-segment resolution at serial static time points, and ST recovery time-trend curve area defined by summated ST-segment resolution and re-elevation integrated over the first 3 hours following PCI.
Blood collection for CK-MB levels was performed at 3-6 hours, 6-12 hours, 18-24 hours, and 36 hours after randomization.

[4] = 100 μg/ml, room temperature, LC/MS
Description: The effect of N-terminal acetylation and C-terminal amidation on compound stability in plasma and serum from rat and human was studied. The compounds were tested in the plasma/serum at a concentration of 100 μg/ml. The solutions were incubated at room temperature, precipitated with 5% TCA, and then the supernatant was neutralized with ammonium acetate. The peptides were then analyzed by LC/MS.

[5] = Stability of linear versus disulfide linked peptides in PBS solution; assay type: physicochemical; settings: conditions described in Example 15 (so in the source), FIGS. 8, 9 and 15
Description: The peptides were placed in solution at 0.1 mg/ml in PBS (pH 7.4) at 37° C.
Linear and disulfide bond linked versions of PKC-βI and PKC-βII peptide compositions were incubated under the conditions described in Example 15.
In particular, the Asn residues at position 7 of the β-I and β-II peptides and the Gln at position 2 of the β-II peptide. These linear peptide compositions were modified by substituting the Gly immediately C-terminal to the Asn with either Leu in the β-I peptide composition or Gly to Ile in the β-II peptide composition. The Gln at position 2 of the β-II peptide composition was also substituted with a Glu residue. The stability of the peptides was studied under the conditions described in Example 15.

[6] = tested on: rat heart; assay: Rat heart model (Langendorff assay) of ischemic damage, CK release; settings: Langendorff in vitro post-ischemia model, 10 minutes perfusion, FIG. 16
Description: The ability of the capped composition to inhibit ischemic damage in a rat heat model (Langendorff Assay) was evaluated versus the uncapped form.

CC[C@@H](C)[C@@H](NC(=O)[C@H]1CCCN1C(=O)[C@@H](C)NC(=O)[C@@H](CC(=O)O)NC(=O)[C@@H](Cc1c[nH]cn1)NC(=O)[C@H](N)CSSC[C@@H](N)C(=O)N[C@H](Cc1ccc(O)cc1)C(=O)NCC(=O)N[C@H](CCCNC(=N)N)C(=O)N[C@H](CCCCN)C(=O)N[C@H](CCCCN)C(=O)N[C@H](CCCNC(=N)N)C(=O)N[C@H](CCCNC(=N)N)C(=O)N[C@H](CCC(N)=O)C(=O)N[C@H](CCCNC(=N)N)C(=O)N[C@H](CCCNC(=N)N)C(=O)N[C@H](CCCNC(=N)N)C(=O)O)C(=O)NCC(=O)N[C@H](Cc1ccc(O)cc1)C(=O)N[C@H](CC(=O)O)C(=O)O [KAI-9706 carrier All-D cargo All-D]
remaining at 0.25 h [1]: 100%

CC[C@H](C)[C@H](NC(=O)[C@@H]1CCCN1C(=O)[C@H](C)NC(=O)[C@H](CC(=O)O)NC(=O)[C@H](Cc1c[nH]cn1)NC(=O)[C@@H](N)CSSC[C@@H](N)C(=O)N[C@H](Cc1ccc(O)cc1)C(=O)NCC(=O)N[C@H](CCCNC(=N)N)C(=O)N[C@H](CCCCN)C(=O)N[C@H](CCCCN)C(=O)N[C@H](CCCNC(=N)N)C(=O)N[C@H](CCCNC(=N)N)C(=O)N[C@H](CCC(N)=O)C(=O)N[C@H](CCCNC(=N)N)C(=O)N[C@H](CCCNC(=N)N)C(=O)N[C@H](CCCNC(=N)N)C(=O)O)C(=O)NCC(=O)N[C@@H](Cc1ccc(O)cc1)C(=O)N[C@@H](CC(=O)O)C(=O)O [KAI-9706 carrier All-D cargo All-L]
remaining at 0.25 h [1]: 88%

CC[C@@H](C)[C@@H](NC(=O)[C@H]1CCCN1C(=O)[C@@H](C)NC(=O)[C@@H](CC(=O)O)NC(=O)[C@@H](Cc1c[nH]cn1)NC(=O)[C@H](N)CSSC[C@H](N)C(=O)N[C@@H](Cc1ccc(O)cc1)C(=O)NCC(=O)N[C@@H](CCCNC(=N)N)C(=O)N[C@@H](CCCCN)C(=O)N[C@@H](CCCCN)C(=O)N[C@@H](CCCNC(=N)N)C(=O)N[C@@H](CCCNC(=N)N)C(=O)N[C@@H](CCC(N)=O)C(=O)N[C@@H](CCCNC(=N)N)C(=O)N[C@@H](CCCNC(=N)N)C(=O)N[C@@H](CCCNC(=N)N)C(=O)O)C(=O)NCC(=O)N[C@H](Cc1ccc(O)cc1)C(=O)N[C@H](CC(=O)O)C(=O)O [KAI-9706 carrier All-L cargo All-D]
remaining at 0.25 h [1]: 0%

CC[C@H](C)[C@H](NC(=O)[C@@H]1CCCN1C(=O)[C@H](C)NC(=O)[C@H](CC(=O)O)NC(=O)[C@H](Cc1c[nH]cn1)NC(=O)[C@H](CSSC[C@H](N)C(=O)N[C@@H](Cc1ccc(O)cc1)C(=O)NCC(=O)N[C@@H](CCCNC(=N)N)C(=O)N[C@@H](CCCCN)C(=O)N[C@@H](CCCCN)C(=O)N[C@@H](CCCNC(=N)N)C(=O)N[C@@H](CCCNC(=N)N)C(=O)N[C@@H](CCC(N)=O)C(=O)N[C@@H](CCCNC(=N)N)C(=O)N[C@@H](CCCNC(=N)N)C(=O)N[C@@H](CCCNC(=N)N)C(=O)O)NC(C)=O)C(=O)NCC(=O)N[C@@H](Cc1ccc(O)cc1)C(=O)N[C@@H](CC(=O)O)C(=O)O [KAI-9706 carrier H—OH cargo Ac—OH]
remaining at 0.25 h [2]: 1%

CC[C@H](C)[C@H](NC(=O)[C@@H]1CCCN1C(=O)[C@H](C)NC(=O)[C@H](CC(=O)O)NC(=O)[C@H](Cc1c[nH]cn1)NC(=O)[C@@H](N)CSSC[C@H](N)C(=O)N[C@@H](Cc1ccc(O)cc1)C(=O)NCC(=O)N[C@@H](CCCNC(=N)N)C(=O)N[C@@H](CCCCN)C(=O)N[C@@H](CCCCN)C(=O)N[C@@H](CCCNC(=N)N)C(=O)N[C@@H](CCCNC(=N)N)C(=O)N[C@@H](CCC(N)=O)C(=O)N[C@@H](CCCNC(=N)N)C(=O)N[C@@H](CCCNC(=N)N)C(=O)N[C@@H](CCCNC(=N)N)C(=O)O)C(=O)NCC(=O)N[C@@H](Cc1ccc(O)cc1)C(=O)N[C@@H](CC(=O)O)C(N)=O [KAI-9706 carrier H—OH cargo H—NH2]
remaining at 0.25 h [2]: 0%

CC[C@H](C)[C@H](NC(=O)[C@@H]1CCCN1C(=O)[C@H](C)NC(=O)[C@H](CC(=O)O)NC(=O)[C@H](Cc1c[nH]cn1)NC(=O)[C@@H](N)CSSC[C@H](N)C(=O)N[C@@H](Cc1ccc(O)cc1)C(=O)NCC(=O)N[C@@H](CCCNC(=N)N)C(=O)N[C@@H](CCCCN)C(=O)N[C@@H](CCCCN)C(=O)N[C@@H](CCCNC(=N)N)C(=O)N[C@@H](CCCNC(=N)N)C(=O)N[C@@H](CCC(N)=O)C(=O)N[C@@H](CCCNC(=N)N)C(=O)N[C@@H](CCCNC(=N)N)C(=O)N[C@@H](CCCNC(=N)N)C(=O)O)C(=O)NCC(=O)N[C@@H](Cc1ccc(O)cc1)C(=O)N[C@@H](CC(=O)O)C(=O)O [KAI-9706]
remaining at 0.25 h [2]: 1% | % parent remaining at 15 mins ([1]; All-L, All-D, scrambled or retro-inverso (R/I) carrier and cargo): 1%

CC(C)C[C@H](NC(=O)[C@H](CO)NC(=O)CNC(=O)[C@H](CC(C)C)NC(=O)[C@H](CCC(=O)O)NC(=O)[C@H](Cc1ccc(O)cc1)NC(=O)[C@H](CO)NC(=O)[C@H](CC(N)=O)NC(=O)[C@H](Cc1ccccc1)NC(=O)[C@H](CO)NC(=O)[C@@H](N)CSSC[C@H](N)C(=O)N[C@@H](Cc1ccc(O)cc1)C(=O)NCC(=O)N[C@@H](CCCNC(=N)N)C(=O)N[C@@H](CCCCN)C(=O)N[C@@H](CCCCN)C(=O)N[C@@H](CCCNC(=N)N)C(=O)N[C@@H](CCCNC(=N)N)C(=O)N[C@@H](CCC(N)=O)C(=O)N[C@@H](CCCNC(=N)N)C(=O)N[C@@H](CCCNC(=N)N)C(=O)N[C@@H](CCCNC(=N)N)C(=O)O)C(=O)O [KAI-9803]
investigator-reported CHF events ([3]; active study drug group, through 6 months, number of events): 21 | incidence of serious adverse events versus placebo ([3]; all cohorts): similar | changes in clinical laboratory values from baseline through 48 hours versus placebo ([3]; blood counts, electrolytes, BUN, creatinine, liver function tests): no differences | incidence of serious adverse events through 30 days ([3]; cohort 1 (0.05 mg)): 30.4% | incidence of serious adverse events through 30 days ([3]; cohort 2 (0.5 mg)): 16.0% | incidence of serious adverse events through 30 days ([3]; cohort 3 (1.25 mg)): 19.2% | incidence of serious adverse events through 30 days ([3]; cohort 4 (5.0 mg)): 35.7% | median maximum change in the QT interval from baseline until after the second dose ([3]; pooled active study drug): 16.9 ms

Ac-EAVSLKPTGGYGRKKRRQRRR-NH2 [KP-1678]
stability in human serum [4]: increased stability

Ac-GEEVIRNISGYGRKKRRQRRR-NH2 [modified linear β-II peptide composition]
stability in solution of PKC-βI and PKC-βII peptide compositions [5]: served to stabilize; also recorded: improved stability

Ac-GKLFIMNLSGYGRKKRRQRRR-NH2 [modified linear β-I peptide composition]
stability in solution of PKC-βI and PKC-βII peptide compositions [5]: served to stabilize; also recorded: stabilized

EAVSLKPTGGYGRKKRRQRRR-NH2 [KP-1633]
stability in human serum [4]: increased stability

KAI-1355: truncated version of KAI-9803 in which the carboxy terminal leucine was removed; cargo CSFNSYELGS
potency in protecting cardiac tissue from ischemia (creatine kinase release) [6]: potency comparable to that of the full length KAI-9803
